The values that follow come from patent publication US11725036B2, “Modified lipidated relaxin B chain peptides and their therapeutic use” (Sanofi, priority 2018, dated 2023).

Series [1] deals with T1, RXFP1 (Homo sapiens, UniProt Q9HBX9).
T1 construct: OVCAR5 cells expressing endogenous RXFP1; endogenous in cells; host or cells: OVCAR5
T1 sequence (Q9HBX9 1-757): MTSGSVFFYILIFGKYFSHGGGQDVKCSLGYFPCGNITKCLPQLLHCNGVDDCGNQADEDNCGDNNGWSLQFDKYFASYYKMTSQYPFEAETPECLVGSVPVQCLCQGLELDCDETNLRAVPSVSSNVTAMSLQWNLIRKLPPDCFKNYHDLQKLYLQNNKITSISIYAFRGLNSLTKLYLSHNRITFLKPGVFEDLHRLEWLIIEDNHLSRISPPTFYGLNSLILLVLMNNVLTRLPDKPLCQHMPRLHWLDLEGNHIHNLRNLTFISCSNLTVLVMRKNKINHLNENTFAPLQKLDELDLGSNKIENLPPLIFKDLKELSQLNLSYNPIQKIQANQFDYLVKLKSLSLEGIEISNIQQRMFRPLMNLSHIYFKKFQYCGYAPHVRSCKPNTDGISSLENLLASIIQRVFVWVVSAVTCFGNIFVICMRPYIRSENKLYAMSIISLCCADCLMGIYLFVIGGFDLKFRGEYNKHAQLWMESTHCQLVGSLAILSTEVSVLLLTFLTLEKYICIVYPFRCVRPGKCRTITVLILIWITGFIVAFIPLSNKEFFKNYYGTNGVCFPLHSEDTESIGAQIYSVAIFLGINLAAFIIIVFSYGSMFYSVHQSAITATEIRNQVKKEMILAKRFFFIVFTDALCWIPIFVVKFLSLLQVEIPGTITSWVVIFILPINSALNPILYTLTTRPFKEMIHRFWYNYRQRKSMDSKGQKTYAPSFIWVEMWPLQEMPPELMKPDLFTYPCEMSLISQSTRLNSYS
Nature of the series: OVCAR5 cAMP assay (HTRF). The class given is cell-based. As to conditions: for EC50: OVCAR 5 cells expressing endogenous RXFP1, cAMP readout; for Emax: OVCAR 5 cells, maximal cAMP relative to H2-relaxin. In outline: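 Endogenous RXFP1 in OVCAR5 cells, pretreated 40 min at 37° C with 1 mM IBMX, then exposed to increasing peptide concentrations in serum-free medium for 30 min at 37° C. cAMP read by HTRF; EC50 by variable-slope sigmoidal fit, Emax as % of H2-relaxin maximal cAMP in same run.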

Series [2] can be described thus: in vivo. On the set-up: species or system Sprague Dawley rats. As to conditions: Sprague Dawley, rat; for C0 / half-life: iv, 1 mg/kg; for bioavailability / Cmax / Tmax: sc; for Cmax / Tmax: 3 mg/kg. As to the method:
Prior to the testing of a peptide batch, its purity (HPLC-UV) was determined. Dose was corrected for presence of salts, solvent and purity. Bioanalytical screening method for quantification of peptides in rat: Sprague Dawley rats were dosed with study peptide at a dose of 1 mg/kg intravenously (i.v.) or 3 mg/kg subcutaneously (s.c.) as a solution in PBS (0.2 mg/ml and 0.6 mg/ml respectively). Blood samples were collected after: 0.083, 0.25, 0.5, 1, 2, 4, 8, 24, 48 and 72 h (i.v. route) and 0.25, 0.5, 1, 2, 4, 6, 8, 10, 24, 48 and 72 h (s.c route) post application. Plasma samples were analyzed after protein precipitation via liquid chromatography mass spectrometry (LC/MS). PK parameters and half-life were calculated using Phoenix 64 (WinNonlin 6.4)-Pharsight (Certara™) (non-compartment model). Values below the limit of quantification (BLQ) were replaced by zero for subsequent calculations and PK analysis. T½: in-vivo half-life, time required for test compound plasma concentration to be divided by two during the PK experiment. C0: Extrapolated test compound plasma concentration at t=0 time point (i.v. route). Cmax: maximal test compound plasma concentration at the indicated time point (s.c. route). Tmax: Time point where Cmax was attained. F %: s.c. vs i.v. bioavailability, dose-corrected area under curve (AUC) s.c. route divided by AUC i.v.

Series [3] is described as follows: Stability in rat plasma. The class given is in vitro ADME. As to conditions: for Rat plasma stability % remaining: T = 0, 37° C., 5 μM. As to the method:
(§1) Prior to the testing of stability in plasma (or blood) of a peptide batch, its purity (HPLC-UV) was determined.
(§2) Rat and Human plasma: anti-coagulant sodium or lithium heparin.
(§3) 100 μM solution of study compound in 50 mM phosphate buffer pH 7.4.
(§4) 950 μL plasma (or blood) was pre-incubated for 5 min at 37° C. 50 μL of compound stock solution was added. Final compound concentration=5 μM. Vortex and transfer 150 μL plasma (or blood) into an Eppendorf for each time point. The time points […] were carried out in duplicate for each species.
(§5) After incubation, 150 μL plasma (or blood) was extracted with 600 μL Acetonitrile containing 1% TFA. Said mixture was then vortexed and centrifuged 10 min at 14600 rpm. 200 μL supernatant was dried under N2. Sample was then reconstituted in 200 μL of H2O/CH3CN 98/2+0.1% FA+50 ng/ml Labetalol and analyzed using the analytical system used in solubility and stability studies.
(§6) For determination of the amount of the remaining peptide, the peak areas of the target compound at t0 and each time point […] were compared, resulting in “% remaining peptide”, following the equation: % remaining peptide=[(peak area peptide time)×100]/peak area peptide t0. The stability was expressed as “% remaining peptide”.

Series [4] can be described thus: Stability in human plasma. In kind it is in vitro ADME. As to conditions: for Human Plasma stability % remaining: T = 0, 37° C., 5 μM; for remaining at 1 h, 5 μM / remaining at 4 h, 5 μM: human, plasma (sodium or lithium heparin), 37° C. As to the method:
as §1, §2, §3, §4, §5, §6

A short description of series [5]: Solubility testing in buffer. The class given is physicochemical. As to conditions: target solubility 10.0 mg/ml.
The mark [6] stands for this setting: rat, plasma (sodium or lithium heparin), 37° C.

Structures are written as SMILES. ≈ marks a conversion by molar mass, not a printed value. Like-named read-outs stand apart in the source and are kept apart here. Starred links: 1 amine or outer side, 2 acyl side, 3 side chain; linkers in the order of their positions; H or OH if unused. Non-standard residues stand in square brackets, D forms with d. Residues, ends and D or L forms follow the SMILES beside them. Groups on a side chain read outwards from the residue. *: point of attachment. X3 = CCCCCCCCCCCCCCCCCC(=O)N[C@@H](CCC(=O)N[C@@H](CCC(=O)N[C@@H](CCC(=O)NCCCOCCOCCOCCCNC(=O)CCC(=O)NCCCOCCOCCOCCCNC(=O)CCC(=O)NCCCOCCOCCOCCCN*)C(=O)O)C(=O)O)C(=O)O; X4 = CCCCCCCCCCCCCCCCCC(=O)N[C@@H](CCC(=O)N[C@@H](CCC(=O)N[C@@H](CCC(=O)NCCCOCCOCCOCCCNC(=O)CCC(=O)NCCCOCCOCCOCCCN*)C(=O)O)C(=O)O)C(=O)O; Suc = O=C(CCC(=O)[*:2])[*:1]; αMeK = C[C@](N)(CCCCN)C(=O)O; Aib = CC(C)(N)C(=O)O

In series [1], `CCCCCCCCCCCCCCCCCC(=O)N[C@@H](CCC(=O)N[C@@H](CCC(=O)N[C@@H](CCC(=O)NCCCOCCOCCOCCCNC(=O)CCC(=O)NCCCOCCOCCOCCCNC(=O)CCC(=O)NCCCC[C@H](NC(=O)CNC(=O)[C@H](CCC(=O)O)NC(=O)C(C)(C)NC(=O)C(C)(C)NC(=O)[C@@H](NC(=O)[C@H](CCCCNC(C)=O)NC(=O)[C@H](C)NC(=O)[C@H](CCCNC(=N)N)NC(=O)[C@@H](NC(=O)[C@H](CCCCN)NC(=O)[C@H](CCC(=O)O)NC(=O)[C@H](CCCNC(=N)N)NC(=O)CNC(=O)[C@H](CCC(=O)O)NC(=O)[C@H](CC(C)C)NC(C)=O)C(C)C)[C@@H](C)CC)C(=O)N[C@@H](CO)C(=O)N[C@H](C(=O)N[C@@H](Cc1c[nH]c2ccccc12)C(=O)N[C@@H](CO)C(=O)NC(C)(C)C(=O)N[C@@H](CCCNC(=N)N)C(=O)N[C@@H](CCCCN)C(=O)N[C@@H](CCCCNC(C)=O)C(N)=O)[C@@H](C)O)C(=O)O)C(=O)O)C(=O)O` [compound 6] (Ac-LEGREKVRAK(Ac)I[Aib][Aib]EGK([Suc-X4])STWS[Aib]RKK(Ac)-NH2) registered an EC50 of 0.27 nM and an Emax of 95%. In series [2], the C0 turned out to be 5.17 µM, the half-life is 335 min, the bioavailability was 72% and the Cmax turned out to be 2710 nM. For the same compound, the Tmax in series [2] is 8 h. The “Rat plasma stability % remaining” value in series [3] turned out to be 97%. This compound displayed a share remaining at 1 h, 5 μM in series [3] (setting [6]) of 94%. In series [4], the “Human Plasma stability % remaining” value is 97%; the share remaining at 1 h, 5 μM was 92%; the amount remaining at 4 h, 5 μM was 91%.

With `CCCCCCCCCCCCCCCCCC(=O)N[C@@H](CCC(=O)N[C@@H](CCC(=O)N[C@@H](CCC(=O)NCCCOCCOCCOCCCNC(=O)CCC(=O)NCCCOCCOCCOCCCNC(=O)CCC(=O)NCCCOCCOCCOCCCNC(=O)CCC(=O)NCCCC[C@H](NC(=O)CNC(=O)[C@H](CCC(=O)O)NC(=O)C(C)(C)NC(=O)C(C)(C)NC(=O)[C@@H](NC(=O)[C@H](CCCCNC(C)=O)NC(=O)[C@H](C)NC(=O)[C@H](CCCNC(=N)N)NC(=O)[C@@H](NC(=O)[C@H](CCCCN)NC(=O)[C@H](CCC(=O)O)NC(=O)[C@H](CCCNC(=N)N)NC(=O)CNC(=O)[C@H](CCC(=O)O)NC(=O)[C@H](CC(C)C)NC(C)=O)C(C)C)[C@@H](C)CC)C(=O)N[C@@H](CO)C(=O)N[C@H](C(=O)N[C@@H](Cc1ccccc1)C(=O)N[C@@H](CO)C(=O)N[C@@](C)(CCCCN)C(=O)N[C@@H](CCCNC(=N)N)C(=O)N[C@@H](C)C(=O)N[C@@H](CCCCNC(C)=O)C(N)=O)[C@@H](C)O)C(=O)O)C(=O)O)C(=O)O` [compound 7] (Ac-LEGREKVRAK(Ac)I[Aib][Aib]EGK([Suc-X3])STFS[αMeK]RAK(Ac)-NH2), in series [1], the response was half-maximal at 0.07 nM (EC50) and the Emax is 95%. The solubility in series [5] (acetate buffer 50 mM pH 4.5, read-out: Solubility Acetate buffer pH 4.5) came out at 11.5 mg/mL (≈ 2610 µM). For the same compound, the solubility in series [5] (phosphate buffer 50 mM pH 7.4, read-out: Solubility phosphate buffer pH 7.4) was found to be 11.8 mg/mL (≈ 2700 µM). Further, in series [2], the C0 turned out to be 4.16 µM, the half-life is 380 min, the bioavailability is 61% and the concentration peaked (Cmax) at 1530 nM. In addition, the Tmax in series [2] is 10 h. In addition, the “Rat plasma stability % remaining” value in series [3] is recorded as 77%. This compound showed a fraction remaining at 1 h, 5 μM in series [3] (setting [6]) of 100%. For the same compound, the amount remaining at 4 h, 5 μM in series [3] (rat, plasma (sodium or lithium heparin), 4 h, 37° C.) amounted to 66%. Further, in series [4], the “Human Plasma stability % remaining” value stood at 92%; the fraction remaining at 1 h, 5 μM came to 94%; the fraction remaining at 4 h, 5 μM was found to be 87%.
